In patent publication US20200323780A1, “BILAYER COMBINATION TABLET FOR ORAL ADMINISTRATION CONTAINING TRAMADOL AND CELECOXIB” (KIMS HEALTHCARE CO., LTD., priority 2017, published 2020):
≈ marks a conversion by molar mass, not a printed value. Like-named read-outs stand apart in the source and are kept apart here.

How the values were obtained:
[1] = system: conditioned place preference; test: Psychological dependence on tramadol by change in conditioned place preference (CPP); type: in vivo, Sprague-Dawley rats; settings: rats; for Change (min) in the time stayed in non-preferred compartment / Change (min) in the time stayed in preferred compartment: post- vs pre-conditioning, 15 minutes
Description: 3. Test for Measuring Psychological Dependence on Tramadol by Assessment of Dependence Potential
In order to measure psychological dependence which is one of the side effects of tramadol, a change in conditioned place preference (CPP) was measured. Conditioned place preference boxes are divided into three boxes, that is, a white box, a black box and a gray box, as shown in FIG. 8. The gray box is a meddle portion in which an animal can choose between the white box and the black box, and the gray box is […]. The black box has a bottom composed of stainless steel rods having a diameter of 4.8 mm and a spacing of 16 mm, and the white box has a bottom composed of stainless steel meshes having a size of 1.25×1.25 cm. The gray box is 12 cm in width, 22 cm in length, and 21 cm in height, and the white box and the black box are 28 cm in width, 21 cm in length, and 21 cm in height.
A series of test procedures are as follows. 5-Week-old male Sprague-Dawley rats (SD rats) were purchased and acclimated for one week. Then, on days 1, 2 and 3 of the test (preconditioning step), in a state in which each rat was not treated with a drug or normal saline for injection, each rat was placed in the gray compartment, and then the door was opened and the time that each rat stayed in each compartment was measured for 15 minutes. Then, based on the mean of the measurement results, the compartment preferred by the rats in the preconditioning step (that is, the compartment in which the rats stayed longer, among the white compartment and the black compartment) was determined.
The next step is a conditioning step corresponding to day 4 to day 11. On days 4, 6, 8 and 10, the corresponding dose of each of the Test Example and the Comparative Examples was administered by intraperitoneal injection to each rat, and after 30 minutes, the rats were adapted to the non-preferred compartment for 30 minutes so as to allow the rats to remember the non-preferred compartment in association with tramadol. On the remaining days 5, 7, 9 and 11, normal saline for injection was administered by intraperitoneal injection to the rats, and after 30 minutes, the rats were adapted to the preferred compartment for 30 minutes so as to allow the rats to remember the preferred compartment in association with the saline solution. On day 12 corresponding to a final step (post-conditioning step), in a state in which neither the drug nor normal saline for injection was administered to the rats, the rats were placed in the gray compartment, and then the door was opened and the time that the rats stayed in each compartment was measured for 15 minutes (see Table 7).
The difference between the time that the rats stayed in the tramadol-associated place (non-preferred compartment) in the post-conditioning step and the time that the rats stayed in the non-preferred compartment in the pre-conditioning step indicates the tramadol-induced change in conditioned place preference, that is, psychological dependence on the drug.
Next, based on the test results, the standardized J-T statistic and the significance level (p-value) were confirmed using a Jonckheere-terpstra test which is a non-parametric statistical method.

[2] = cited from earlier work
[3] = cited from earlier work; remark: listed apart in the source
[4] = tramadol 2.6 mg/kg intraperitoneal on days 4, 6, 8, 10
[5] = tramadol 3.9 mg/kg intraperitoneal on days 4, 6, 8, 10
[6] = tramadol 10.3 mg/kg intraperitoneal on days 4, 6, 8, 10

| Compound | Change (min) in the time stayed in non-preferred compartment [1, 4] [min] | Change (min) in the time stayed in preferred compartment [1, 4] [min] | Change (min) in the time stayed in non-preferred compartment [1, 5] [min] | Change (min) in the time stayed in preferred compartment [1, 5] [min] | Change (min) in the time stayed in non-preferred compartment [1, 6] [min] | Change (min) in the time stayed in preferred compartment [1, 6] [min] | psychological dependence on tramadol (FIG. 9) ([1]; tramadol 37.5 mg (Comparative Example 5) or 100 mg (Comparative Example 6) compared to Test Example 2 (tramadol 25 mg) and Comparative Example 4 (tramadol 0 mg)) | solubility in water [2] | blood half-life ([3]; in vivo) | solubility in water ([2]; 20° C.) [µg/mL] | in vivo half-life [3] |
| --- | --- | --- | --- | --- | --- | --- | --- | --- | --- | --- | --- |
| COc1cccc(C2(O)CCCCC2CN(C)C)c1 (centres unmarked) [tramadol] | 1.3 | -0.17 | 2.8 | 2.20 | 3.3 | 3.03 | greatly increased | very soluble in water | about 6 hours |  |  |
| Cc1ccc(-c2cc(C(F)(F)F)nn2-c2ccc(S(N)(=O)=O)cc2)cc1 [Celecoxib] |  |  |  |  |  |  |  |  |  | 3.3 (≈ 8.65 µM) | about 11 hours |
